Entries after “also recorded” stand apart in the source; their conditions may differ. Structures can show the parent of a compound that is named as a salt. Where two headings read alike, the source gives them in different places.
Key:
[1] = tested on: heart rate response to isoproterenol (β-adrenergic); assay: Heart rate response to isoproterenol in rats (initial drug screening); format: in vivo, male Spraque-Dawley rats; conditions: 6 mg/kg i.p.
Source text: Initial Drug Screening Protocol. Thirty-two male Spraque-Dawley rats (Blue Spruce Farms) initially weighing 300-450 gm were divided into seven different groups, each for a different drug to be tested: 12(n=4), 14(n=4), 17(n=5), 13(n=4) and 18(n=3), corresponding to the designated compounds 12, 14, 17, 13 and 18 (number of animals), respectively. The other two groups were controls (n=8, isoproterenol alone pretreated with carrier) and those treated with a known β-blocker, dl-propranolol (n=3). Ech animal was anesthetized with sodium pentobarbital (45 mg/kg) and the carotid artery was cannulated with PE-50 tubing. The cannula was subcutaneously threaded around the neck and exteriorized dorsally between the shoulder blades. Th cannula was filled with a heparin solution (300 μg/mL) and sealed with a solid 22 gauge stylet. The animals were housed in individual stainless steel cages, and two days were allowed for recovery from the surgery. Food and water were provided ad libitum. On the day of the experiment, the blood pressure and heart rate of each rat were monitored with a pressure transducer (Narco-Bio model P-1000) and the data recorded on a four-channel physiograph (Narco-Bio systems Marck IV). One hour was allowed as an equilibration period before any drugs were administered. All beta blockers were administered intraperitoneally at a dose of 6 mg/kg. Compounds 12 and 14 and dl-proranolol were dissolved in normal saline while compounds 13, 17 and 18 were dissolved in an ethanol: water solution (3:1). Depending on the trial, controls were administered the appropriate carrier. One hour after administration of the blocker, isoproterenol (Isuprel®, Wintrop Laboratories) was administered subcutaneously at a dose of 25 μg/kg. Blood pressures and heart rate also were recorded 3, 5, 10, 15, 20, 30, 45 and 60 minutes after isoproterenol administration. Both control and experimental animals were unrestrained and free moving in their home cage throughout the experiment. […] However, significant differences in the mean heart rate response amoung the 7 groups were observed: *p<0.005;**p<0.025. Comparisons between groups were made by the Newman-Keuls procedure with significance set at the 95% confidence interval. […] All data are shown as mean±standard error of the mean.

[2] = Enzymatic hydrolytic cleavage in human plasma; format: in vitro ADME; conditions: for half-life at 1000 µM: human, plasma
Experimental: Analytical Methods. A high pressure liquid chromatography (HPLC) method was developed for the determination of the rate constants. The chromatographic analysis was performed in a system consisting of Waters Associates Model 600-A Solvent Delivery System, Model U-6K Injector and Model 440 Dual Channel Absorbance Detector operated at 254 and 280 nm. A 30 cm×3.9 mm (internal diameter) reverse phase μBondpack C18 column (Waters Associates), operated at ambient temperature, was used for all separations. When plasma samples were analyzed, the column was protected with a 2.3 cm×3.9 mm (internal diameter) Guard Column (Waters) packed with μBondpack C18/Corasil packing material. The mobile phase used for the separation of 17 and its degradation product, 5, consisted of water, 1-hexane sulfonic acid in acetic acid (B-6 reagent, Waters), 0.1M triethanolamine and methanol (100:1:100:799). […] For the separation of compounds 10-16 and 18 and their degradation product 5, a mobile phase consisting of water, 1-hexane sulfonic acid in acetic acid (B-6 reagent, Waters), 0.1M triethanolamine and methanol (390:1:10:599) was used.
Determination of the Hydrolytic Rate Constants in Aqueous Solutions. A 0.01M phosphate buffer and 0.01N sodium hydroxide solution were prepared from freshly distilled deionized water. This ionic strength was maintained at 0.1M with sodium chloride. The pH of the phosphate buffer was determined at 37.0° C. with a pH meter standardized at this temperature. For determination of the hydrolytic rate constants, a fresh concentrated solution of the ester in methanol was added to the hydrolytic medium previously equilibrated to the desired temperature and mixed thoroughly to result in an initial concentration of about 5×10^-4 mol. liter^-1. All reactions were run under pseudo first order conditions. Samples of 25 μL were injected into the column at various time intervals and the pseudo first order rate constants were determined from disappearance of the compound by linear regression of natural logarithm of the peak height versus time plots. The half-life and standard error of the rate constant were calculated for each run.
Determination of the Enzymatic Hydrolytic Cleavage Rates in Human Plasma. The freshly collected plasma used was obtained from the Civitan Regional Blood Center, Inc. (Gainesville, Fla.) and contained about 80% plasma diluted with anticoagulant citrate phosphate dextrose solution, U.S.P. The plasma was stored in a refrigerator and used within one week from the date it was collected.
A portion of 50 μL of a freshly prepared solution of the compound in methanol was added to 10 mL plasma, previously equilibrated at 37.0° C. in a water bath, and mixed thoroughly to result in an initial concentration of 1×10^-3 mol. liter^-1. One mL samples of plasma were withdrawn from the test medium, mixed immediately with 4.0 mL ice cold 95% v/v ethanol, centrifuged and the supernatant analyzed by HPLC. The first order hydrolytic rate constant was determined as before in the aqueous solutions and the results are listed in TABLE II below.

[3] = tested on: heart rate response to isoproterenol (β-adrenergic); assay: Duration of action study, heart rate in rats; format: in vivo, male Sprague Dawley rats; conditions: 6 mg/kg i.p.; for resting heart rate prior to isoproterenol: mean ± SEM
Experimental: Duration of Action Studies. An additional 38 male Sprague Dawley rats (Blue Spruce Farms) initially weighing 268 to 290 gm were anesthetized with sodium pentobarbital (45 mg/kg i.p.), and the carotid artery was cannulated as previously described. On the day of experimentation, after a one-hour equilibration period, initial baseline conditions of basal heart rate and mean blood pressures were recorded. The beta blocker (17) was administered intraperitoneally at a dose of 6 mg/kg. The drug was dissolved in an ethanol: water solution (3:1). This carrier was administered in the control rats. Isoproterenol (Isurprel®, Wintrop Laboratories) was then administered (25 μg/kg s.c.), either 15(n=13), 60(n=12) or 90(n=12) minutes after the beta blocker was administered. Blood pressures and heart rates were recorded at 3, 5, 10, 15, 20, 30, 45 and 60 minutes after isoproterenol administration in all three trials. Both control and experimental animals were unrestrained and free moving in their home cages throught the experiment. Heart rates and mean blood pressure were calculated from the data and a one-way ANOVA was determined at each time interval. The results are shown in FIG. 2 for control vehicle and compound 17 at 15(), 60() and 90() minutes prior to isoproterenol administration at time zero. Resting heart rates were similar in all 4 groups prior to administration of isoproterenol; 342±12; 375±14; 372±19 and 385±17 beats/minute, respectively. […] Data are shown as mean±standard error of the mean.

- Observed first order hydrolytic rate constant k ([2]; 37.0 ± 0.1° C., ± SEM): 0.566 ± 0.027 min⁻¹
- half-life at 1000 µM ([2]; 37.0 ± 0.1° C., read-out: Half-life t1/2): 1.22 min
- half-life at 1000 µM ([2]; read-out: in vitro plasma half-life): ~1 min
Compound: CC(C)NCC(O)COc1ccc(CC(=O)OC2CC(C)(C)CC(C)(C)C2)cc1 (stereo not drawn) [Compound 17, 3,3,5,5-Tetramethylcyclohexyl 4-(2-hydroxy-3-isopropylamino)propoxyphenylacetate oxalate 3/4 hydrate]
- mean heart rate response to isoproterenol, comparison between groups ([1]; 1 hour before isoproterenol 25 μg/kg s.c., Newman-Keuls, first 20 minutes (17) or first 30 minutes (propranolol)): significantly different from both control- and compound 18-treated groups
- control of heart rate 60 minutes after administration ([1]; FIG. 1): effectively control the heart rate
- mean heart rate response to isoproterenol vs groups treated with compound 12 and 18 ([1]; 10 through 45 minutes following isoproterenol): significantly different than the groups treated with compound 12 and 18
- resting heart rate prior to administration of isoproterenol ([1]; mean ± SEM): 372±19 beat/minute
- heart rate response to isoproterenol ([3]; 15 or 60 minutes prior to isoproterenol 25 μg/kg s.c., FIG. 2, hydrate): attentuated heart rate response; also recorded: significant activity on heart rate
- resting heart rate prior to isoproterenol ([3]; 15 minutes prior to isoproterenol): 375±14 beats/minute
- resting heart rate prior to isoproterenol ([3]; 60 minutes prior to isoproterenol): 372±19 beats/minute
- heart rate activity at 90 minutes ([3]; 90 minutes prior to isoproterenol, FIG. 2): disappears at 90 minutes
- resting heart rate prior to isoproterenol ([3]; 90 minutes prior to isoproterenol): 385±17 beats/minute
